Values quoted from earlier work as cited in patent US11325944B2 (priority 2017, dated 2022).
[ ]: non-standard residue; d: D form.

Key:
[1] = system: KOR
[2] = target: KOR (Homo sapiens, UniProt P41145)
[3] = target: DOR; conditions: δ opioid receptor, CHO cell membranes; read-out: Kd of radioligand

KOR (Homo sapiens, UniProt P41145), sequence (P41145 whole entry): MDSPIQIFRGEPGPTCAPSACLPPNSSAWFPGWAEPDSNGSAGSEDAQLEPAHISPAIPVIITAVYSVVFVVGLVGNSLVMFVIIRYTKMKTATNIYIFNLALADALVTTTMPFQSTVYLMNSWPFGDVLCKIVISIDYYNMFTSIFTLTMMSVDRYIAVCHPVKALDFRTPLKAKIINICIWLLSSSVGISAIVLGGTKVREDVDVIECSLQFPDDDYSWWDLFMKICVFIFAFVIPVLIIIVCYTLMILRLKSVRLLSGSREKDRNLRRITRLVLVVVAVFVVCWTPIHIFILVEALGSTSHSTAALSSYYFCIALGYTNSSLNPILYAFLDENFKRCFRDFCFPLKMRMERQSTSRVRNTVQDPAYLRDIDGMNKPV

For “cyclo [CJ-15,208, cyclo [Phe-D-Pro-Phe-Trp]]”, the “agonist (antinociceptive) activity in vivo” value [1] is listed as “mild agonist (antinociceptive) activity”.

In the case of cyclo(F[dP]F[dW]) [[D-Trp]CJ-15,208], the KOR antagonism ([1]; in vivo) is listed as “exhibited KOR antagonism”, the “selectivity for KOR over MOR and DOR” value [2] is listed as “selective activity against the kappa opioid receptor (KOR) over mu opioid receptors (MOR) and delta opioid receptors (DOR)” and the “KOR antagonism in vitro” value ([2]; in vitro) is listed as “antagonize KOR in vitro”.

In the case of “cyclo[D-Pen^2, D-Pen]enkephalin [[^3H]-DPDPE]”, the Kd [3] is listed as 1.76 nM.
